Test system: retinal pigmented epithelium (RPE) wild-type (WT) cells
Assay: Effect of calcium and red-light irradiation on NO levels (DAF-FM DA integrated fluorescence)
Assay type: cell-based
Protocol: In this experiment, the influence of Ca^2+ on nitric oxide (NO) levels was determined by measuring the integrated fluorescence of the reaction product of NO with diaminofluorescein-FM diacetate (DAF-FM DA, C25H18F2N2O7).
Procedurally, the experiment was carried out using a 96 well plate, with either ionic calcium (Ca^2+) or encapsulated calcium (CaCD) added to each of the wells. The concentration of calcium in the wells as CaCl2 was 1.67 mM, and the concentration as CaCD was 2.79 mM stock (or 5 μM final concentration), in a total volume of 300 μL in each well. The number of RPE-WT cells was approximately 175,000 per well. Two reference samples for CaCl2 and CaCD were used to compare relative changes upon exposure to red-light in the presence of Ca^2+. The RPE cells were incubated with DAF-FM DA for 30 minutes at 37 degrees C. and the fluorescence was immediately measured (as time-point 0 minutes) to obtain a ‘background’ baseline.

## [Ca+2].[Cl-].[Cl-] [Ca, CaCl2]
WT in PBS + Ca (no red light), Time 9.09 (minutes)
  Intensity (integrated fluorescence of DAF-FM DA, NO level): 85.40
WT in PBS + Ca (no red light), Time 28.63 (minutes)
  Intensity (integrated fluorescence of DAF-FM DA, NO level): 92.76
WT in PBS + Ca (no red light), Time 75.14 (minutes)
  Intensity (integrated fluorescence of DAF-FM DA, NO level): 100.20
WT in PBS + Ca (no red light), Time 307.24 (minutes)
  Intensity (integrated fluorescence of DAF-FM DA, NO level): 191.01
WT in PBS + Ca (no red light), Time 319.44 (minutes)
  Intensity (integrated fluorescence of DAF-FM DA, NO level): 198.35
WT in PBS + Ca (no red light), Time 431.58 (minutes)
  Intensity (integrated fluorescence of DAF-FM DA, NO level): 271.80
WT in PBS + Ca (no red light), Time 460.95 (minutes)
  Intensity (integrated fluorescence of DAF-FM DA, NO level): 276.75
WT in PBS + Ca (no red light), Time 770.49 (minutes)
  Intensity (integrated fluorescence of DAF-FM DA, NO level): 489.70
WT in PBS + Ca (no red light), Time 799.74 (minutes)
  Intensity (integrated fluorescence of DAF-FM DA, NO level): 509.28
WT in PBS + Ca + RL15, Time 9.09 (minutes)
  Intensity (integrated fluorescence of DAF-FM DA, NO level): 85.40
WT in PBS + Ca + RL15, Time 28.61 (minutes)
  Intensity (integrated fluorescence of DAF-FM DA, NO level): 95.20
WT in PBS + Ca + RL15, Time 70.2 (minutes)
  Intensity (integrated fluorescence of DAF-FM DA, NO level): 105.06
WT in PBS + Ca + RL15, Time 307.22 (minutes)
  Intensity (integrated fluorescence of DAF-FM DA, NO level): 193.44
WT in PBS + Ca + RL15, Time 316.95 (minutes)
  Intensity (integrated fluorescence of DAF-FM DA, NO level): 203.22
WT in PBS + Ca + RL15, Time 428.93 (minutes)
  Intensity (integrated fluorescence of DAF-FM DA, NO level): 296.18
WT in PBS + Ca + RL15, Time 460.74 (minutes)
  Intensity (integrated fluorescence of DAF-FM DA, NO level): 303.57
WT in PBS + Ca + RL15, Time 765.45 (minutes)
  Intensity (integrated fluorescence of DAF-FM DA, NO level): 506.76
WT in PBS + Ca + RL15, Time 799.54 (minutes)
  Intensity (integrated fluorescence of DAF-FM DA, NO level): 533.67
WT in PBS + Ca + RL30, Time 11.6 (minutes)
  Intensity (integrated fluorescence of DAF-FM DA, NO level): 68.33
WT in PBS + Ca + RL30, Time 33.6 (minutes)
  Intensity (integrated fluorescence of DAF-FM DA, NO level): 75.70
WT in PBS + Ca + RL30, Time 72.9 (minutes)
  Intensity (integrated fluorescence of DAF-FM DA, NO level): 73.36
WT in PBS + Ca + RL30, Time 308 (minutes)
  Intensity (integrated fluorescence of DAF-FM DA, NO level): 83.69
WT in PBS + Ca + RL30, Time 320.3 (minutes)
  Intensity (integrated fluorescence of DAF-FM DA, NO level): 86.16
WT in PBS + Ca + RL30, Time 427 (minutes)
  Intensity (integrated fluorescence of DAF-FM DA, NO level): 237.64
WT in PBS + Ca + RL30, Time 466 (minutes)
  Intensity (integrated fluorescence of DAF-FM DA, NO level): 240.17
WT in PBS + Ca + RL30, Time 770.9 (minutes)
  Intensity (integrated fluorescence of DAF-FM DA, NO level): 462.87
WT in PBS + Ca + RL30, Time 799.9 (minutes)
  Intensity (integrated fluorescence of DAF-FM DA, NO level): 494.65
WT in PBS + Ca + RL60, Time 11.52 (minutes)
  Intensity (integrated fluorescence of DAF-FM DA, NO level): 87.84
WT in PBS + Ca + RL60, Time 33.54 (minutes)
  Intensity (integrated fluorescence of DAF-FM DA, NO level): 92.78
WT in PBS + Ca + RL60, Time 72.65 (minutes)
  Intensity (integrated fluorescence of DAF-FM DA, NO level): 105.07
WT in PBS + Ca + RL60, Time 307.26 (minutes)
  Intensity (integrated fluorescence of DAF-FM DA, NO level): 188.57
WT in PBS + Ca + RL60, Time 319.42 (minutes)
  Intensity (integrated fluorescence of DAF-FM DA, NO level): 200.79
WT in PBS + Ca + RL60, Time 429.53 (minutes)
  Intensity (integrated fluorescence of DAF-FM DA, NO level): 223.01
WT in PBS + Ca + RL60, Time 463.82 (minutes)
  Intensity (integrated fluorescence of DAF-FM DA, NO level): 225.53
WT in PBS + Ca + RL60, Time 768.4 (minutes)
  Intensity (integrated fluorescence of DAF-FM DA, NO level): 445.79
WT in PBS + Ca + RL60, Time 799.9 (minutes)
  Intensity (integrated fluorescence of DAF-FM DA, NO level): 480.01
Ionic calcium wells, over the entire 800 minutes
  DAF-FM DA NO profile: continued to increase
